# Data taken from US5981497A, “Utilization of sophorolipids as therapeutically active substances or cosmetic products, in particular for the treatment of the skin” (Institut Francais du Petrole, priority 1995, dated 1999).
# Read-outs that look alike come from different tables or passages of the source.
# Legend:
# Format in all cases: cell-based
# fibroblasts = assay: Cytotoxicity on primocultures at 24 hours (neutral red), fibroblasts
# From the text: Their innocuousness and their activity make it possible to use them in other stages of healing, namely granulation and epithelialization, by modulating their concentration in the formulas of products that are used. This is possible only because of the low cytotoxicity of sophorolipids, as Tables 3A and 3B show. The toxicity of the products of the invention has been evaluated with a viability test with neutral red on two cellular types of the skin, cells L929 and other fibroblasts of the dermis and cells NCTC 2544 and keratinocytes of the epidermis. The results, which are presented in Tables 3A, 3B, correspond to the rates of cellular viability that are expressed in % relative to the negative test.
# [1] = test system: macrophages (Interleukin-1 release); assay: IL-1 released by macrophages (Elisa sandwich test on culture supernatant)
# From the text: It is known, however, that several factors such as cytokines and growth factors play important roles in the process of wound healing. These factors include the epidermal growth factor (EGF), the fibroblastic growth factor (FGF), the platelet-derived growth factor (PDGF), and the beta transforming growth factor (beta-TGF). In addition to these factors, cytokines such as interleukin-l (IL-1), the tumor necrosis factor (TNF), and interleukin-6 (IL-6) also play important roles in the process of wound healing. These factors act by different methods, in combination with other materials, to induce proliferation of dermal and epidermal elements such as fibroblasts. […] Actually, IL-1 affects the differentiation, growth, and activity of many cellular types in the organism. Within the immune system, IL-1 acts as a second signal that is necessary to activate the IL-2 circuit by the activated T lymphocytes. It also potentiates the action of other cytokines. It contributes to the differentiation of B lymphocytes and to their production of immunoglobulins. It modifies vascular permeability by the release of mediators by the endothelial cells and induces the appearance at their surface of a factor that has a procoagulating activity. Owing to its proliferative effect on the fibroblasts, it intervenes in the repair phase.
# To show the effect of activating macrophages by sophorolipids, an Elisa sandwich test was carried out on the supernatant of a culture medium that contained macrophages. […] A negative test was also used.
# melanocytes = assay: Melanine dosage in melanocytes after 7 and 14 days; conditions: for activity at 100 µM / activity at 10 µM / activity at 1 µM: Melanocyte, read-out: Melanine content; for activity at 100 µM: 10^-4M; for activity at 10 µM: 10^-5M; for activity at 1 µM: 10^-6M
# Protocol: It is noted that cutaneous ageing causes epidermal functions to slow down: melanine no longer comes to the surface of the skin in a homogeneous manner and concentrates inside certain cells, and brown spots appear mainly on the hands, the forearms, and the neckline. […] Residues are picked up in PBS/triton X-100 (1% v/v) and sounds for 30 seconds. The cellular lysate is ultracentrifuged (105,000 rpm for 40 minutes at +4° C.). The residue that is obtained is then picked up in 1 ml of PBS. The proportion of protein is determined by the calorimetric method (Biorad) and then adjusted to 1.5 mg/ml.
# 100-(content of melanine of the tested product×100/content of melanine TN)
# TN corresponds to the negative test.
# As a result, again, the galenical forms are diverse. An example of an anti-spot cream for hands that is also used in cosmetics or in therapeutics is provided below, however: […]
Structure (SMILES),times less toxic than the lactone form (fibroblasts; Tables 3A and 3B),"Cellular Viability Rate (fibroblasts; fibroblasts, 24 hours, 10^-6M, 1 µM)",Concentrations IL-1 released by macrophages ([1]; 10^-4M),action on IL-1 release relative to that of lipopolysaccharides (fold) ([1]; 10^-4M),Concentrations IL-1 released by macrophages ([1]; 10^-5M),action on IL-1 release compared with lipopolysaccharides ([1]; 10^-5M),Concentrations IL-1 released by macrophages ([1]; 10^-6M),"activity at 100 µM (melanocytes; 168 h, at day 7)","activity at 10 µM (melanocytes; 168 h, at day 7)","activity at 1 µM (melanocytes; 168 h, at day 7)","activity at 100 µM (melanocytes; 336 h, at day 14)","activity at 10 µM (melanocytes; 336 h, at day 14)","activity at 1 µM (melanocytes; 336 h, at day 14)",effect on synthesis of melanine (melanocytes; unlike linolenic acid)
CC(CCCCCC/C=C\CCCCCCCC(=O)O)O[C@@H]1O[C@H](CO)[C@@H](O)[C@H](O)[C@H]1O[C@@H]1O[C@H](CO)[C@@H](O)[C@H](O)[C@H]1O (some centres unmarked) [Sophorolipid in Acid Form],10 times,99.65 % relative to TN,795.6 pg/mL,twice,500.8 pg/mL,equivalent to that of lipopolysaccharides,287.2 pg/mL,56.2%,65.8%,93.6%,56.8%,86.4%,95.4%,reduction in the synthesis of melanine
CC1CCCCCC/C=C\CCCCCCCC(=O)O[C@H]2[C@H](O)[C@@H](O)[C@H](O[C@H]3[C@H](O1)O[C@H](CO)[C@@H](O)[C@@H]3O)O[C@@H]2CO (some centres unmarked) [Sophorolipid in Lactone Form],–,–,255.4 pg/mL,–,385.9 pg/mL,–,345.1 pg/mL,–,–,–,–,–,–,–
